# Laboratory results reported in US4201781A, “Substituted 7[s-oxopyrido[2,3-d]pyrimidine carboxamido acetamido]cephalosporins” (Dainippon Pharmaceutical Co., Ltd., priority 1977, dated 1980).
# Read-outs that look alike come from different tables or passages of the source.
# Key:
# Solubility in water = type: physicochemical; conditions: for Solubility in water (in words): water / deionized water / aqueous medium; for solubility: deionized water at 25° C.
# Method: |Solubility in deionized water at 25° C.
# [1] = system: Salmonella typhimurium S-9; test: In vitro antibacterial activity (MIC); type: cell-based; conditions: Salmonella enterica, read-out: minimum inhibitory concentration (MIC)
# Text: (§1) The numerals in the table show minimum inhibitory concentrations (MIC)
# [2] = system: Staphylococcus aureus 209P JC-1; test: In vitro antibacterial activity (MIC); type: cell-based; conditions: read-out: minimum inhibitory concentration (MIC)
# Text: as §1
# [3] = system: Enterobacter cloacae P-2540; test: In vitro antibacterial activity (MIC); type: cell-based
# Text: as §1
# [4] = system: Escherichia coli NIHJ JC-2; test: In vitro antibacterial activity (MIC); type: cell-based
# Text: as §1
# Proteus mirabilis P-2381 = test: In vitro antibacterial activity (MIC); type: cell-based
# Text: as §1
# [5] = system: Streptococcus pyrogenes 65A; test: In vitro antibacterial activity (MIC); type: cell-based; conditions: read-out: minimum inhibitory concentration (MIC)
# Text: as §1
# [6] = system: Salmonella enteritidis No. 1891; test: In vitro antibacterial activity (MIC); type: cell-based; conditions: Salmonella enterica, read-out: minimum inhibitory concentration (MIC)
# Text: as §1
# [7] = system: Pseudomonas aeruginosa No. 12; test: In vitro antibacterial activity (MIC); type: cell-based
# Text: as §1
# [8] = system: Klebsiella pneumoniae No. 13; test: In vitro antibacterial activity (MIC); type: cell-based
# Text: as §1
# Proteus morganii Kono = test: In vitro antibacterial activity (MIC); type: cell-based; conditions: Morganella morganii, read-out: minimum inhibitory concentration (MIC)
# Text: as §1
# [9] = system: Pseudomonas aeruginosa Tsuchijima; test: In vitro antibacterial activity (MIC); type: cell-based; conditions: read-out: minimum inhibitory concentration (MIC)
# Text: as §1
# [10] = system: Serratia marcescens IFO 3736; test: In vitro antibacterial activity (MIC); type: cell-based
# Text: as §1
# Escherichia coli P-5101 [11] = test: In vitro antibacterial activity (MIC); type: cell-based
# Text: as §1
# [12] = system: Corynebacterium pyrogenes C-21; test: In vitro antibacterial activity (MIC); type: cell-based
# Text: as §1
# [13] = system: Staphylococcus aureus No. 50774; test: In vitro antibacterial activity (MIC); type: cell-based
# Text: as §1
# [14] = system: Staphylococcus aureus No. 50774; test: In vivo efficacy against systemic infection in mice; parameters: species or system male mice (ddY); conditions: read-out: ED50 (median effective dose)
# Method: (§2) Compounds 1,2, A and B were each dissolved in deionized water to prepare injectable solutions having various concentrations.
# (§3) Each of the injectable solutions was administered to mice infected with each of the bacteria described below under the conditions described below, and the median effective doses (ED50) obtained are shown in Table II. […]
# (§4) male mice (ddY) weighing about 20 g
# (1) Staphylococcus aureus No. 50774; Intravenous infection with 50 to 100 LD50 (about 5×10^8 cells/mouse) of a bacterial suspension in saline. twice, about 5 minutes and 6 hours after infection. […]
# (§5) Note; The numerals in the table show ED50 (mg/kg). ED50 values
# (§6) were calculated in accordance with the BehrensKaerber method (Arch. Exp.
# Acute toxicity in mice = conditions: mouse, in vivo, read-out: LD50 (median lethal dose)
# Method: Injectable solutions containing compounds 1, 2 and compound A in various concentrations were administered to male mice (ddY) (4 to 8 in each group) in a dose of 0.1 ml per 10 g of body weight. The number of dead mice was counted after a lapse of 7 days, and the value of median lethal dose (LD50, mg/kg) was calculated.
# Note: The LD50 values were calculated in accordance with the […]
# Escherichia coli P-5101 [15] = test: In vivo efficacy against systemic infection in mice; parameters: species or system male mice (ddY); conditions: read-out: ED50 (median effective dose)
# Method: as §2
# Each of the injectable solutions was administered to mice infected with each of the bacteria described below under the conditions described below, and the median effective doses (ED50) obtained are shown in Table II.
# as §4
# (2) Escherichia coli P-5101; Intraperitoneal infection with 50 to 100 LD50 (about 9×10^6 cells/mouse) of a bacterial suspension in trypto-soy broth with 4% mucin.
# twice, about 5 minutes and 6 hours after infection.
# as §5, §6
# Shigella flexneri 2a = test: In vitro antibacterial activity (MIC); type: cell-based; conditions: read-out: minimum inhibitory concentration (MIC)
# Text: as §1
# (§7) *Clinically isolated Cephalexinresistant strain.
# Escherichia coli P-140a = test: In vitro antibacterial activity (MIC); type: cell-based; conditions: for MIC: Escherichia coli, read-out: minimum inhibitory concentration (MIC)
# Text: as §1, §7
# [16] = system: Shigella flexneri 4a P-330; test: In vitro antibacterial activity (MIC); type: cell-based
# Text: as §1, §7
# [17] = system: Gram-negative and Gram-positive bacteria; test: Antibacterial activity (general statement)
# [18] = system: Pseudomonas aeruginosa No. 12; test: In vivo efficacy against systemic infection in mice; parameters: species or system male mice (ddY); conditions: read-out: ED50 (median effective dose)
# Method: as §2, §3, §4
# (3) Pseudomonas aeruginosa No. 12; Intraperitoneal infection with 50 to 100 LD50 (about 5×10^3 cells/mouse) of a bacterial suspension in trypto-soy broth with 4% mucin. twice, about 5 minutes and 6 hours after infection. […]
# as §5, §6
# [19] = Enterobacter cloacae, P2540, read-out: minimum inhibitory concentration (MIC)
# [20] = Escherichia coli, NIHJJC2, read-out: minimum inhibitory concentration (MIC)
# [21] = Proteus mirabilis, P2381, read-out: minimum inhibitory concentration (MIC)
# [22] = Pseudomonas aeruginosa, NO.12, read-out: minimum inhibitory concentration (MIC)
# [23] = Staphylococcus aureus, NO.50774, read-out: minimum inhibitory concentration (MIC)
# [24] = Staphylococcus aureus 209P JC-1, in vitro
# [25] = P2540, Enterobacter cloacae P-2540, in vitro, read-out: minimum inhibitory concentration (MIC)
# [26] = NIHJJC2, Escherichia coli NIHJ JC-2, in vitro, read-out: minimum inhibitory concentration (MIC)
# [27] = P2381, Proteus mirabilis P-2381, in vitro, read-out: minimum inhibitory concentration (MIC)
# [28] = Streptococcus pyrogenes 65A, in vitro
# [29] = Salmonella enteritidis No. 1891, in vitro
# [30] = Pseudomonas aeruginosa No. 12, in vitro, read-out: minimum inhibitory concentration (MIC)
# [31] = Klebsiella pneumoniae No. 13, in vitro, read-out: minimum inhibitory concentration (MIC)
# [32] = Proteus morganii Kono, in vitro
# [33] = IFO3736, Serratia marcescens IFO 3736, in vitro, read-out: minimum inhibitory concentration (MIC)
# [34] = P5101, Escherichia coli P-5101, in vitro, read-out: minimum inhibitory concentration (MIC)
# [35] = C21, Corynebacterium pyrogenes C-21, in vitro, read-out: minimum inhibitory concentration (MIC)
# [36] = Staphylococcus aureus No. 50774, in vitro, read-out: minimum inhibitory concentration (MIC)
# [37] = NO.50774, 336 h, mice, sc, twice about 5 minutes and 6 hours after intravenous infection, observation 14 days
# [38] = P5101, 168 h, mice, sc, twice about 5 minutes and 6 hours after intraperitoneal infection, observation 7 days
# [39] = Shigella flexneri 2a, clinically isolated Cephalexin-resistant strain, in vitro
# [40] = 4AP330, Shigella flexneri 4a P-330, clinically isolated Cephalexin-resistant strain, in vitro, read-out: minimum inhibitory concentration (MIC)
# [41] = NO.12, 168 h, mice, po, twice about 5 minutes and 6 hours after intraperitoneal infection, observation 7 days
# [42] = NO.12, 168 h, mice, sc, twice about 5 minutes and 6 hours after intraperitoneal infection, observation 7 days
Compound,Solubility in water (in words) (Solubility in water),MIC ([1]; TYPHIMURIUM),"MIC ([2]; Staphylococcus aureus, 209P)","MIC [3, 19]","MIC [4, 20]",MIC ([9]; Pseudomonas aeruginosa),MIC (Escherichia coli P-140a),solubility (Solubility in water),"MIC [5, 28]","MIC [6, 29]","MIC [8, 31]","MIC [10, 33]",MIC (Escherichia coli P-5101 [11]; [34]),"MIC [12, 35]","ED50 [14, 37]",ED50 (Escherichia coli P-5101 [15]; [38]),MIC (Shigella flexneri 2a; [39]),"MIC [16, 40]","ED50 [18, 41]","ED50 [18, 42]",other results
Cn1nnnc1SCC1=C(C(=O)O)N2C(=O)C(NC(=O)C(NC(=O)c3c[nH]c4nc(N5CCNCC5)ncc4c3=O)c3ccc(O)cc3)C2SC1 (centres unmarked),soluble in deionized water in the same degree as compound A,–,–,–,–,–,–,–,–,–,–,–,–,–,–,–,–,–,–,–,–
Cn1nnnc1SCC1=C(C(=O)[O-])N2C(=O)C(NC(=O)[C@H](NC(=O)c3c[nH]c4nc(N5CCNCC5)ncc4c3=O)c3ccc(O)cc3)[C@H]2SC1.[Na+] (some centres unmarked),extremely low solubility in water,0.78 µg/mL,3.13 µg/mL,3.13 µg/mL,1.56 µg/mL,3.13 µg/mL,1.56 µg/mL,~0.5 mg/mL,–,–,–,–,–,–,–,–,–,–,–,–,"MIC (Proteus mirabilis P-2381; [21]): 12.5 µg/mL; MIC ([5]; Streptococcus, 65A): 0.2 µg/mL; MIC ([6]; ENTERITIDIS): 0.78 µg/mL; MIC [7, 22]: 6.25 µg/mL; MIC ([8]; Klebsiella pneumoniae, NO.13, read-out: minimum inhibitory concentration (MIC)): 0.78 µg/mL; MIC (Proteus morganii Kono): 25 µg/mL; MIC ([10]; Serratia marcescens, IFO3736, read-out: minimum inhibitory concentration (MIC)): 6.25 µg/mL; MIC (Escherichia coli P-5101 [11]; Escherichia coli, P5101, read-out: minimum inhibitory concentration (MIC)): 0.78 µg/mL; MIC ([12]; Corynebacterium, C21, read-out: minimum inhibitory concentration (MIC)): 6.25 µg/mL; MIC [13, 23]: 6.25 µg/mL; ED50 ([14]; NO.50774, sc, 336 h): ~7.8 mg/kg; LD50 at 168 h (Acute toxicity in mice; ip): ~1500 mg/kg; ED50 (Escherichia coli P-5101 [15]; P5101, sc, 168 h): ~0.4 mg/kg; MIC (Shigella flexneri 2a; Shigella flexneri, 2A): 0.78 µg/mL; MIC ([16]; Shigella flexneri, 4AP330, read-out: minimum inhibitory concentration (MIC)): 12.5 µg/mL; antibacterial activity (in words) [17]: superior antibacterial activity as the compound of the present invention; ED50 ([18]; NO.12, po, 168 h): > 100 mg/kg; ED50 ([18]; NO.12, sc, 168 h): 4.8 mg/kg"
"Cc1nnc(SCC2=C(C(=O)O)N3C(=O)[C@@H](NC(=O)Cn4cnnn4)[C@H]3SC2)s1 [B, Cefazolin]",–,–,–,–,–,–,–,400 mg/mL,0.1 µg/mL,1.56 µg/mL,3.13 µg/mL,> 200 µg/mL,1.56 µg/mL,0.39 µg/mL,0.2 mg/kg,5.3 mg/kg,3.13 µg/mL,> 200 µg/mL,> 100 mg/kg,> 800 mg/kg,"MIC ([1]; Salmonella typhimurium S-9, in vitro): 1.56 µg/mL; MIC [2, 24]: 0.2 µg/mL; MIC [3, 25]: > 200 µg/mL; MIC [4, 26]: 1.56 µg/mL; MIC (Proteus mirabilis P-2381; [27]): 6.25 µg/mL; MIC [7, 30]: > 200 µg/mL; MIC (Proteus morganii Kono; [32]): > 200 µg/mL; MIC ([9]; Pseudomonas aeruginosa Tsuchijima, in vitro): > 200 µg/mL; MIC [13, 36]: 0.2 µg/mL; minimum inhibitory concentration (MIC) (Escherichia coli P-140a): > 200 µg/mL"
"O=CN1CCN(c2ncc3c(=O)c(C(=O)N[C@@H](C(=O)N[C@@H]4C(=O)N5C(C(=O)O)=C(CSc6nnc(CC(=O)O)s6)CS[C@H]45)c4ccc(O)cc4)c[nH]c3n2)CC1 [Compound 2, Disodium 7-{D-α-[5,8-dihydro-2-(4-formyl-1-piperazinyl)-5-oxopyrido[2,3-d]pyrimidine-6-carboxamido]-α-p-hydroxyphenylacetamido}-3-(5-carboxylatomethyl-1,3,4-thiadiazol-2-yl)thiomethyl-3-cephem-4-carboxylate]",–,1.56 µg/mL,–,–,–,1.56 µg/mL,1.56 µg/mL,~150 mg/mL,0.1 µg/mL,0.78 µg/mL,1.56 µg/mL,6.25 µg/mL,0.78 µg/mL,3.13 µg/mL,11.5 mg/kg,2.5 mg/kg,1.56 µg/mL,12.5 µg/mL,> 100 mg/kg,9.6 mg/kg,"MIC [2, 24]: 6.25 µg/mL; MIC [3, 25]: 3.13 µg/mL; MIC [4, 26]: 0.78 µg/mL; MIC (Proteus mirabilis P-2381; [21]): 1.56 µg/mL; MIC [7, 30]: 6.25 µg/mL; MIC (Proteus morganii Kono; [32]): 3.13 µg/mL; MIC [13, 36]: 6.25 µg/mL; LD50 at 168 h (Acute toxicity in mice; male mice (ddY), iv, after 7 days): > 2000 mg/kg"
"O=CN1CCN(c2ncc3c(=O)c(C(=O)N[C@@H](C(=O)N[C@@H]4C(=O)N5C(C(=O)O)=C(CSc6nnnn6CC(=O)O)CS[C@H]45)c4ccc(O)cc4)c[nH]c3n2)CC1 [Compound 1, Disodium 7-{D-α-[5,8-dihydro-2-(4-formyl-1-piperazinyl)-5-oxopyrido[2,3-d]pyrimidine-6-carboxamido]-α-p-hydroxyphenylacetamido}-3-(1-carboxylatomethyl-1,2,3,4-tetrazol-5-yl)thiomethyl-3-cephem-4-carboxylate]",–,1.56 µg/mL,6.25 µg/mL,1.56 µg/mL,1.56 µg/mL,1.56 µg/mL,1.56 µg/mL,~400 mg/mL,0.2 µg/mL,0.78 µg/mL,1.56 µg/mL,3.13 µg/mL,0.78 µg/mL,3.13 µg/mL,13.1 mg/kg,1.5 mg/kg,1.56 µg/mL,6.25 µg/mL,> 100 mg/kg,4.8 mg/kg,"MIC (Proteus mirabilis P-2381; [27]): 0.78 µg/mL; MIC [7, 22]: 6.25 µg/mL; MIC (Proteus morganii Kono): 1.56 µg/mL; MIC [13, 23]: 6.25 µg/mL; LD50 at 168 h (Acute toxicity in mice; iv): > 2000 mg/kg"
